# The NIST ThermoML archive (doi:10.1016/j.fluid.2014.04.003)
# ± gives the expanded uncertainty stated by the source.
# Conditions: Crystal; DTA
structure (smiles),measurement,value
CC(C)Cc1ccc([C@H](C)C(=O)O)cc1.CCCCCCCCNC[C@H](O)[C@@H](O)[C@H](O)[C@H](O)CO [S-ibuprofen n-octyl-d-glucamine salt],Normal melting temperature,139.26 ± 0.39 °C
